In PMC8161026, “Synthesis and Anticancer Activity Evaluation of 5-[2-Chloro-3-(4-nitrophenyl)-2-propenylidene]-4-thiazolidinones” (Molecules, 2021):

How the values were obtained:
SW-620 = SW-620 (Colon Cancer), 48 h, SRB
ACHN = experiment: NCI DTP 60 cell line screen, SRB; details: 48 h
[1] = Lymphocyte viability, MTT assay; details: human
Procedure: (§1) Another part of our study was to determine the influence of compounds 2f, 2i, 2j, and 2h on normal human blood lymphocytes (Figure 5). […] Thus, normal blood lymphocytes are blood cells, as well as cells of leukemia cell lines, therapeutic index (TI) of compounds 2f, 2h, and 2j was calculated as GI50 (normal blood lymphocyte)/GI50 (leukemia cell line) (Table 5).
(§2) Figure 5 Human lymphocyte viability after 48 h of 2f, 2i, 2j, 2h, and Ciminalum drug exposure was estimated by MTT assay.
(§3) The assay was performed by using 3-(4,5-dimethylthiazole-2-yl)- 2,5-diphenyltetrazolium bromide (MTT). Confluent cells, cultured for 24 h with 0.1, 1, 5, 10, 20, 30, and 100 µM concentrations of studied compounds in 24-well plates were washed with PBS. MTT was dissolved in PBS, and 25 µL were added to each well. Plates were incubated for 4 h at 37 °C in 5% CO2 in an incubator. The medium with MTT was removed, and 1 mL of DMSO was added to the attached cells. Furthermore, cells were incubated for 5–10 min in RT and then 10 µl of Sorensen buffer was added to each well. The absorbance of converted dye in living cells was measured at a wavelength of 570 nm. The cell viability of breast cancer cells, gastric cancer cells, and human colon cancer cells cultured in the presence of ligands was calculated as percent of control cells.
(§4) First, 20 mL of venous blood was taken from volunteers (Ethical protocol number 2, 27 January 2019) and collected in the presence of 200 μL of undiluted fresh heparin (1/100). Sterile blood was diluted 2 times with 0.9% NaCl under the sterile conditions. Isolation of lymphocytes was performed in a density gradient of ficol-verografin using the protocol of the manufacturer (Lympoprep, NYCOMED PHARMA AS, Oslo Norway). The resulting lymphocytes were resuspended in the RPMI-1640 medium and cultured for several days (up to 10 days). To separate the lymphocytes from the monocytes, cell suspension was left for 24 h. After 24 h of culture, monocytes were attached, while lymphocytes were transferred to a fresh Falcon tube (15 mL). To stimulate the proliferation of lymphocytes, they were cultured on CD3+ antibody-coated plastic plate in the RPMI-1640 medium supplemented with 20% FBS.

[2] = test system: normal human blood lymphocytes; experiment: in vitro
Procedure: as §1, §2, §3, §4

KM12 = experiment: cells; details: Homo sapiens, KM12, 48 h
U251 = experiment: cells; details: Homo sapiens, U-251, 48 h
Colo 205 = experiment: NCI DTP 60 cell line screen, SRB
SNB-75 = experiment: cells; details: Homo sapiens, SNB-75, 48 h
T-47D = T-47D (Breast Cancer), 48 h, SRB
SK-MEL-28 = SK-MEL-28 (Melanoma), 48 h, SRB
MDA-MB-435 = experiment: NCI DTP 60 cell line screen, SRB
DU-145 = experiment: cells; details: Homo sapiens, DU-145, 48 h
786-0 [3] = experiment: cells; details: Homo sapiens, 786-0, 48 h
MALME-3M = experiment: NCI DTP 60 cell line screen, SRB; details: 48 h
786-0 [4] = details: 786-0 (Renal Cancer), 48 h, SRB
NCI-H23 = experiment: cells; details: Homo sapiens, NCI-H23, 48 h
A549/ATCC = A549/ATCC (Non-Small Cell Lung Cancer), 48 h, SRB
LOX IMVI = LOX IMVI (Melanoma), 48 h, SRB
SF-268 = experiment: NCI DTP 60 cell line screen, SRB

O=C(O)CCN1C(=O)/C(=C/C(Cl)=C/c2ccc([N+](=O)[O-])cc2)SC1=S [Compound 2h, 3-{5-[(Z,2Z)-2-Chloro-3-(4-nitrophenyl)-2-propenylidene]-4-oxo-2-thioxothiazolidin-3-yl}propanoic acid] showed a TGI (SW-620) of 3.25 µM, a TGI (ACHN; ACHN (Renal Cancer), SRB) of 2.42 µM and a GI50 (ACHN; Homo sapiens, ACHN) of 1.02 µM. The CC50 (ACHN; Homo sapiens, ACHN, read-out: LC50) was 5.76 µM, the GI50 at 48 h [1] was 54.5 µM and the “toxicity toward normal human blood lymphocytes” value [2] was “low toxicity”. It also gave a GI50 (KM12) of 0.639 µM, a CC50 (KM12; read-out: LC50) of over 100 µM and a GI50 (U251) of 0.149 µM. The CC50 (U251; read-out: LC50) was over 100 µM, the TGI (Colo 205; Colo 205 (Colon Cancer), 48 h, SRB) was over 100 µM and the GI50 (Colo 205; Homo sapiens, COLO 205, 48 h) was 0.35 µM. It also gave a CC50 (Colo 205; Homo sapiens, COLO 205, 48 h, read-out: LC50) of over 100 µM, a GI50 (SNB-75) of 12.5 µM and a CC50 (SNB-75; read-out: LC50) of over 100 µM. For the same compound, the TGI (T-47D) was over 100 µM, the TGI (SK-MEL-28) was 23.6 µM and the “TI (Therapeutic Index)” value (HL-60(TB); GI50 (normal blood lymphocyte)/GI50 (HL-60(TB))) was 157.18. It also gave a TGI (HL-60(TB); HL-60(TB) (Leukemia), 48 h, SRB) of 1.87 µM, a GI50 (MDA-MB-435; Homo sapiens, MDA-MB-435, 48 h) of 1.25 µM and a CC50 (MDA-MB-435; Homo sapiens, MDA-MB-435, 48 h, read-out: LC50) of 29.3 µM. It also gave a TGI (MDA-MB-435; MDA-MB-435 (Breast Cancer), 48 h, SRB) of 4.12 µM, a GI50 (DU-145) of 0.421 µM and a CC50 (DU-145; read-out: LC50) of 52.3 µM. For the same compound, the GI50 (786-0 [3]) was 1.13 µM, the CC50 (786-0 [3]; read-out: LC50) was 5.42 µM and the GI50 (MALME-3M; Homo sapiens, Malme-3M) was 9.7 µM. It also gave a CC50 (MALME-3M; Homo sapiens, Malme-3M, read-out: LC50) of over 100 µM, a TGI (MALME-3M; MALME-3M (Melanoma), SRB) of 61.9 µM and a TGI (786-0 [4]) of 2.47 µM. The GI50 (NCI-H23) was 1.44 µM, the CC50 (NCI-H23; read-out: LC50) was 7.19 µM and the TGI (A549/ATCC) was 7.62 µM. For the same compound, the TGI (LOX IMVI) was 0.515 µM, the GI50 (SF-268; Homo sapiens, SF-268, 48 h) was 2.12 µM and the CC50 (SF-268; Homo sapiens, SF-268, 48 h, read-out: LC50) was over 100 µM. The TGI (SF-268; SF-268 (CNS Cancer), 48 h, SRB) was 9.74 µM.
